{
  "source": "patent US9981918B2",
  "about": "“Kynurenine-3-monooxygenase inhibitors, pharmaceutical compositions, and methods of use thereof” (CHDI Foundation, Inc., priority 2011, dated 2018)",
  "system": "KMO",
  "experiment": "KMO inhibition: L-Kynurenine hydroxylation to 3-Hydroxy-Kynurenine monitored by LC/MS",
  "assay_type": "biochemical",
  "conditions": "compound at 10 uM; footnote: some portion of activity of amides may be due to contribution of acid precursor",
  "method": "A generalized procedure for monitoring L-Kynurenine (KYN) hydroxylation to form product 3-Hydroxy-Kynurenine (30H-KYN) by LC/MS is described below. Product is quantified by multiple reaction monitoring using MS.\nA method of monitoring L-Kynurenine (KYN) hydroxylation to form product 3-Hydroxy-Kynurenine (30H-KYN) by LC/MS is described below. Product is quantified by multiple reaction monitoring.\n• Compound: Stock concentrations: 10 mM in 100% DMSO • Enzyme: KMO enzyme prepared at Evotec via mitochondria isolation from CHO-GST HIS KMO cells • Substrate: L-Kynurenine (Sigma: Cat# K3750) • [stock concentration: 10 mM in 100 mM potassium phosphate buffer, pH 7.4]\nA method of monitoring L-Kynurenine (KYN) hydroxylation to form 3-Hydroxy-Kynurenine (30H-KYN) by LC/MS is described. Product is quantified by multiple reaction monitoring (MRM method).",
  "data": [
    {"smiles": "O=S(=O)(Nc1cc(-c2ccc(OC3CC3)c(Cl)c2)ncn1)c1ccccc1", "note": "[N-[6-(3-chloro-4-cyclopropoxyphenyl)pyrimidin-4-yl]benzenesulfonamide]", "values": [
      {"measurement": "% Inhibition at 10 uM*", "result": 73, "unit": "%"}
    ]},
    {"smiles": "O=C(Nc1cccnc1)c1cc(-c2ccc(Cl)c(OC3CCOC3)c2)ncn1", "note": "(stereo not drawn) [6-[4-Chloro-3-(tetrahydro-furan-3-yloxy)-phenyl]-pyrimidine-4-carboxylic acid pyridin-3-ylamide]", "values": [
      {"measurement": "% Inhibition at 10 uM*", "result": 88.39, "unit": "%"}
    ]},
    {"smiles": "CC(C)Oc1ccc(-c2ccnc(C(=O)O)c2)cc1Cl", "note": "[4-(3-Chloro-4-isopropoxy-phenyl)-pyridine-2-carboxylic acid]", "values": [
      {"measurement": "% Inhibition at 10 uM*", "result": 80, "unit": "%"}
    ]},
    {"smiles": "O=C(O)c1cc(-c2ccc(OC3CCNC3)c(Cl)c2)ncn1", "note": "(stereo not drawn) [6-[3-Chloro-4-(pyrrolidin-3-yloxy)-phenyl]-pyrimidine-4-carboxylic acid]", "values": [
      {"measurement": "% Inhibition at 10 uM*", "result": 80, "unit": "%"}
    ]},
    {"smiles": "O=S(=O)(Nc1cc(-c2ccc(OC3CC3)c(Cl)c2)ncn1)c1ccccc1F", "note": "[N-[6-(3-chloro-4-cyclopropoxyphenyl)pyrimidin-4-yl]-2-fluorobenzene-1-sulfonamide]", "values": [
      {"measurement": "% Inhibition at 10 uM*", "result": 96, "unit": "%"}
    ]},
    {"smiles": "O=S(=O)(Nc1cc(-c2ccc(OC3CC3)c(Cl)c2)ncn1)C1CC1", "note": "[N-[6-(3-chloro-4-cyclopropoxyphenyl)pyrimidin-4-yl]cyclopropanesulfonamide]", "values": [
      {"measurement": "% Inhibition at 10 uM*", "result": 33, "unit": "%"}
    ]},
    {"smiles": "Cn1c(=O)oc2c(Cl)cc(-c3cc(C(=O)O)ncn3)cc21", "note": "[6-(7-chloro-3-methyl-2-oxo-2,3-dihydro-1,3-benzoxazol-5-yl)pyrimidine-4-carboxylic acid]", "values": [
      {"measurement": "% Inhibition at 10 uM*", "result": 100, "unit": "%"}
    ]},
    {"smiles": "Cc1nc(C(=O)O)cc(-c2ccc(OC(C)C)c(Cl)c2)n1", "note": "[6-(3-Chloro-4-isopropoxy-phenyl)-2-methyl-pyrimidine-4-carboxylic acid]", "values": [
      {"measurement": "% Inhibition at 10 uM*", "result": 70, "unit": "%"}
    ]},
    {"smiles": "CCC(C)Oc1ccc(-c2cc(C(=O)O)ncn2)cc1Cl", "note": "(stereo in doubt) [6-(4-(R)-sec-Butoxy-3-chloro-phenyl)-pyrimidine-4-carboxylic acid]", "values": [
      {"measurement": "% Inhibition at 10 uM*", "result": 100, "unit": "%"}
    ]},
    {"smiles": "CC(C)c1ccc(-c2cc(C(=O)O)ncn2)cc1Cl", "note": "[6-(3-Chloro-4-isopropyl-phenyl)-pyrimidine-4-carboxylic acid]", "values": [
      {"measurement": "% Inhibition at 10 uM*", "result": 100, "unit": "%"}
    ]},
    {"smiles": "O=S(=O)(Nc1cc(-c2ccc(OC3CC3)c(Cl)c2)ncn1)c1ccc(F)cc1", "note": "[N-[6-(3-chloro-4-cyclopropoxyphenyl)pyrimidin-4-yl]-4-fluorobenzene-1-sulfonamide]", "values": [
      {"measurement": "% Inhibition at 10 uM*", "result": 98, "unit": "%"}
    ]},
    {"smiles": "CCC(C)Oc1ccc(-c2cc(C(=O)O)ncn2)cc1Cl", "note": "(stereo in doubt) [6-(4-(S)-sec-Butoxy-3-chloro-phenyl)-pyrimidine-4-carboxylic acid]", "values": [
      {"measurement": "% Inhibition at 10 uM*", "result": 100, "unit": "%"}
    ]}
  ]
}
